Data from PubChem BioAssay AID1224920 (Broad Institute, 2016).
Calls of active or inactive are those of the source.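 How the source made its calls: active means IC50 no higher than ten times the top tested dose; inconclusive means flat fit with 30 to 70% inhibition, or poor fit; inactive means IC50 above ten times the top dose.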

Experiment: growth modulation of Clostridium difficile isolate – OD600, 9-point, retest, dose response (AID 1224920);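 further: plate controls were DMSO for no effect and levofloxacin control for full effect; inhibitors lower culture turbidity so OD600 falls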
Conditions: Clostridium difficile clinical isolate growth, OD600, 24 h

Structure (SMILES) | activity change, negative = inhibition (at 120 µM (top of the series)) | activity change, negative = inhibition (at 60 µM (top of the series)) | also measured
Cc1noc(C)c1NC(=O)N(C)C[C@H]1Oc2ccc(NC(=O)Nc3ccc4c(c3)OCO4)cc2CC(=O)N([C@H](C)CO)C[C@@H]1C | -2.04% (inactive) | – | –
COc1ccc(NC(=O)N2CC[C@H]3[C@@H]2c2cc(Br)ccc2N(C)[C@H]3CO)cc1 | – | – | activity change, negative = inhibition (at 135 µM (top of the series)): 4.83% (inactive)
COc1ccc2c3c(n(C)c2c1)[C@H](CO)N(C(=O)Cc1ccccc1)CC31CCN(C)CC1 | 8.89% (inactive) | – | –
CC(=O)N(C)C[C@@H]1[C@@H](c2ccc(-c3ccccc3F)cc2)[C@H](CO)N1C(C)=O | -14.3% (inactive) | – | –
Cc1ccccc1-c1ccc([C@@H]2[C@@H](CO)N3CCCCN(S(=O)(=O)c4ccc(F)cc4)C[C@H]23)cc1 | -1.33% (inactive) | – | –
COc1ccc2c3c(n(C)c2c1)[C@@H](CO)N(C(=O)C1CC1)CC31CN(C(=O)Nc2cccc(F)c2)C1 | 18.8% (inactive) | – | –
C[C@H](CO)N1C[C@H](C)[C@H](CN(C)Cc2ccc(Oc3ccccc3)cc2)Oc2ccc(NS(=O)(=O)c3ccccc3)cc2CC1=O | – | 33.6% (inactive) | –
CN(C)CC(=O)N1C[C@@H]2N[C@H](C1)C2c1ccc(/C=C/c2ccccc2)cc1 (stereo partly drawn) | – | 46.6% (inactive) | –
O=C(c1ccc2c(c1)OCO2)N1C[C@@H]2N[C@H](C1)C2c1ccc(-c2ccccc2F)cc1 (stereo partly drawn) | – | – | activity change, negative = inhibition (at 68 µM (top of the series)): 31.1% (inactive)
C[C@H](CO)N1C[C@H](C)[C@H](CN(C)C(=O)Nc2ccc3c(c2)OCO3)Oc2c(NC(=O)Nc3ccc(C(F)(F)F)cc3)cccc2C1=O | 49.4% (inactive) | – | –
C/C=C/c1ccc(C2[C@@H]3CN(Cc4cccc(OC)c4)C[C@H]2N3)cc1 (stereo partly drawn) | – | 20.9% (inactive) | –
OC[C@H]1[C@H](c2ccc(-c3ccccc3)cc2)[C@@H]2CN(CCC(F)(F)F)CCCCN12 | – | 31.7% (inactive) | –
Cc1cccc(-c2ccc(C3[C@@H]4CN(C(=O)Cc5ccncc5)C[C@H]3N4)cc2)c1 (stereo partly drawn) | – | 39.4% (inactive) | –
O=S(=O)(c1ccc(F)cc1)N1CCCCN2[C@H](CO)[C@H](c3ccc(C#CC4CCCC4)cc3)[C@H]2C1 | -16.2% (inactive) | – | –
CC(=O)N(C)C[C@@H]1[C@@H](c2ccc(-c3ccccc3F)cc2)[C@@H](CO)N1C(C)=O | – | – | activity change, negative = inhibition (at 135 µM (top of the series)): -15.6% (inactive)
O=S(=O)(c1ccc(F)cc1)N1CCCCN2[C@@H](CO)[C@@H](c3ccc(-c4ccccc4)cc3)[C@@H]2C1 | 0.278% (inactive) | – | –
CC(=O)NC[C@H]1[C@H](c2ccc(-c3cccc(F)c3)cc2)[C@@H](CO)N1C(C)=O | -18.5% (inactive) | – | –

Structure (SMILES) | activity change, negative = inhibition (at 120 µM (top of the series)) | activity change, negative = inhibition (at 60 µM (top of the series)) | also measured
N#Cc1cccc(-c2ccc(C3[C@H]4CNC[C@@H]3N4C(=O)Nc3ccc(F)cc3)cc2)c1 (stereo partly drawn) | – | – | activity change, negative = inhibition (at 68 µM (top of the series)): 21.6% (inactive)
Cc1ccccc1S(=O)(=O)N1CC[C@H]2[C@H](CO)Nc3ccc(-c4ccc(F)cc4)cc3[C@H]21 | – | 13.1% (inactive) | –
N#Cc1cccc(-c2ccc(C3[C@@H]4CN(S(=O)(=O)Cc5ccccc5)C[C@H]3N4)cc2)c1 (stereo partly drawn) | – | 29.4% (inactive) | –
COc1ccccc1-c1ccc2c(c1)[C@@H]1[C@@H](CCN1C(=O)C1CCOCC1)[C@@H](CO)N2 | – | 39.1% (inactive) | –
CN(C)C(=O)c1cccc(-c2ccc([C@@H]3[C@H]4CN(C(=O)C5CCCCC5)CC(=O)N4[C@H]3CO)cc2)c1 | -5.65% (inactive) | – | –
COc1ccc(NC(=O)N2[C@@H]3CNC[C@H]2C3c2ccc(-c3ccc(F)cc3)cc2)cc1 (stereo partly drawn) | – | 39.8% (inactive) | –
CC(=O)N1[C@H](CN(C)C(=O)CN2CCOCC2)[C@@H](c2ccccc2)[C@@H]1CO | -1.26% (inactive) | – | –
COc1cccc(-c2ccc3c(c2)[C@@H]2[C@@H](CCN2C(=O)Nc2ccccc2OC)[C@@H](CO)N3C)c1 | – | – | activity change, negative = inhibition (at 135 µM (top of the series)): -19.3% (inactive)
O=C(NC[C@H]1N[C@H](CO)[C@@H]1c1ccc(C2=CCCC2)cc1)C1CCCCC1 | – | 36.2% (inactive) | –
O=C(Nc1cccc(F)c1)N1CCCCN2[C@H](CO)[C@@H](c3ccc(-c4ccccc4F)cc3)[C@@H]2C1 | 39.6% (inactive) | – | –
Cc1ccccc1-c1ccc([C@H]2[C@@H](CO)N3CCCCN(S(=O)(=O)c4ccc(F)cc4)C[C@H]23)cc1 | 3.42% (inactive) | – | –
COc1ccc(NC(=O)N2C[C@@H]3N[C@H](C2)C3c2ccc(-c3cccc(OC)c3)cc2)cc1 (stereo partly drawn) | – | 28.8% (inactive) | –
Cc1ccc(-c2ccc([C@@H]3[C@@H](CO)N4CCCCN(C(=O)Nc5ccccc5)C[C@@H]34)cc2)cc1 | 27.7% (inactive) | – | –
Cc1ccc(-c2ccccc2[C@@H]2[C@@H](C#N)N(C(=O)NC3CCCC3)[C@H]2CO)cc1 | – | – | activity change, negative = inhibition (at 135 µM (top of the series)): 25% (inactive)
CC(=O)NC[C@H]1[C@@H](c2ccc(-c3cccc(F)c3)cc2)[C@@H](CO)N1C(C)=O | – | – | activity change, negative = inhibition (at 135 µM (top of the series)): -7.05% (inactive)
COc1ccc2c3c(n(C)c2c1)[C@H](CO)N(C)CC31CN(C(=O)NC(C)C)C1 | 0.365% (inactive) | – | –
